Laboratory results published in patent US20030109051A1, “Spin trap for use in biological systems” (RANDOX LABORATORIES LTD, priority 2001, published 2003).
Entries after “also recorded” stand apart in the source; their conditions may differ.

Key:
[1] = Reaction of nitric oxide with spin traps, ESR time course (chemical system); conditions: for trapping of nitric oxide (spin trap for nitric oxide): chemical system, spin trap in toluene, NO-saturated water
Method: ESR spectra were obtained using a prototype spectrometer (Jeol (U.K.) Ltd., Welwyn Garden City, England) equipped with a TED11 cylindrical cavity. Samples were analysed at room temperature in a WG-LC-11 quartz flat cell (Wilmad-Glass, Buena, N.J.). In general, the instrument parameters were: microwave frequency 9.2 GHz, microwave power 4 mW, centre field (CF) 336.7 mT, sweep width (SW)±5 mT, number of data points 4095, modulation frequency 100 kHz. For the spin traps reacted with nitric oxide: sweep time (ST) 150 s, time constraint (TC) 0.3 s, modulation width (MW) 0.2 mT. A JEOL ES-DM1 digital manganese oxide marker (0.03 mm of the glass tube inserted per unit on the dial setting) with a dial setting of 500 was used to ensure reproducibility between samples and to identify the position of the signals in the microwave field.
Samples of DBBNB, DMNB and TMNB were weighed into vacutainers, which were then evacuated Toluene and Tris-HCl buffer, 0.01 M, pH 7.4, were deoxygenated by bubbling with nitrogen gas for 15 min. Deoxygenated toluene was added to DBBNB, DMNB and TMNB, using a gas-tight syringe, to give a final concentration of 0.15 M in the reaction mixture.
The apparatus shown in FIG. 5 was flushed with nitrogen for 15 min. The vacutainer containing deionised water (4 ml) was then connected to the system and flushed with nitrogen for a further 15 min, to remove any oxygen present in the system, and therefore to prevent the formation of nitrogen dioxide. The NO gas was bubbled through the deionised water via the system for 45 min. The small amount of nitrogen dioxide present in the pressurised NO container was removed by bubbling through two bottles of 5M NaOH. The gas was then bubbled through a scrubbing bottle containing deionised water to remove any alkaline aerosol contamination. Any excess of NO after the deionised water step was bubbled through a scrubbing bottle containing 1M potassium permanganate/1M NaOH to prevent excess NO escaping from the fumehood. The concentration of NO in the resulting NO-saturated water was taken to be 2.0 mM. […]

[2] = Spin trapping of nitric oxide in whole blood using DMNB (ESR)
Method: This may be due to the possibility that any NO present or produced by live leucocytes in whole blood may react with thiol groups to form S-nitrosothiols and consequently be not trapped by DMNB. […] Lipopolysaccharide (LPS), which activates cell function, was also used in order to stimulate the cells to increase production of NO. As NEM may be toxic to cells, it was added i) at the same time as LPS and ii) 3.5 hours after the addition of LPS.
Peripheral blood was taken from a healthy volunteer into a vacutainer containing EDTA. After mixing, 1 ml of the blood was dispensed into each reaction vacutainer by a syringe, as quickly as possible (under 5 min).
DMNB (2) 0.5406 g was dissolved in 16 ml of deoxygenated toluene (by bubbling through nitrogen gas) to make a 0.25 M solution. 700 μl of the solution was added to each reaction mixture to make a final concentration of 0.1 M. A NO solution was made by bubbling nitric oxide gas through deoxygenated water for 45 min. The resulting NO solution (2 mM) was diluted with deoxygenated water to give 10, 35 and 50 nM solutions. An NEM solution (0. 3 M) was prepared by dissolving 0.0751 g of NEM in deoxygenated water. NEM solution (0.3 M), in amounts of 20, 40 and 80 μl, was added to the reaction mixtures to give a concentration, in 1 ml of blood, of 6, 12 and 24 mM. LPS (1 mg) was dissolved in 1 ml of PBS, 0.01 M, pH 7.4. The working stock solution is 100 μg/ml, diluted with the same buffer. The working stock solution of 10 μl was added to the reaction mixture to give a 1 μg/ml of blood. All transfer of reagents was done by gastight syringe through rubber stopper. The difference in volume due to the addition of NEM and LPS was compensated for by addition of deoxygenated water.
NO solution, blood without NEM nor LPS and PBS (0.01 M, pH 7.4) as controls were added to DMNB in toluene directly. NEM without LPS was added to blood immediately prior to addition of DMNB in toluene. When LPS was added to blood alone, the mixture of blood and LPS was incubated at room temperature for 3.5 hour before addition to DMNB in toluene. When both NEM and LPS were added to blood, NEM was either added to the blood together with LPS or added 3.5 hour later (Gust before addition of DMNB). When the DMNB in toluene was added, the reaction mixtures were incubated at room temperature on a roller for 2 hour to ensure effective extraction.
The reaction mixture was then analysed by ESR spectrometry (RE1X, Jeol). Individual results are shown in FIG. 6, and have been reassessed, for comparison purposes, in FIG. 7.

| SMILES | reaction time of DBNBS with NO ([1]; comparison value, conditions and source not given) | trapping of nitric oxide (spin trap for nitric oxide) [1] | DMNB-NO adduct ESR signal intensity ([2]; LPS alone (1 μg/ml blood, 3.5 hour) before DMNB) | DMNB-NO adduct ESR signal intensity ([2]; NEM (6, 12, 24 mM) added to blood before DMNB, increase proportional to NEM concentration) | DMNB-NO adduct ESR signal ([2]; both LPS and NEM added to blood) | DMNB-NO adduct ESR signal ([2]; peripheral blood incubated with DMNB in toluene, no NEM, no LPS) |
| --- | --- | --- | --- | --- | --- | --- |
| O=Nc1c(Br)cc(S(=O)(=O)[O-])cc1Br.[Na+] [DBNBS, 3,5-dibromo-4-nitrosobenzene sulphonate, sodium salt, reference compound] | approximately 50 hr | – | – | – | – | – |
| Cc1cccc(C)c1N=O [DMNB, 2,6-Dimethylnitrosobenzene] | – | shown to trap nitric oxide | did not Increase the signal intensity | increase in signal intensity | significant increase | did not produce a detectable DMNB-NO adduct signal; also recorded: very little signal was detected |
| Cc1cc(C)c(N=O)c(C)c1 [TMNB, 2,4,6-Trimethylnitrosobenzene] | – | shown to trap nitric oxide | – | – | – | – |
